Reference: PubChem BioAssay AID224 (DTP/NCI, 2004)
“And” between values parts separate entries of the source, which are not always exact repeats. Equal entries are not always repeated. Inconclusive results and toxic doses are left out.

Tested on: P335 leukemia ip, BDF1 mice, survival T/C %
Experiment: NCI In Vivo Anticancer Drug Screen. Data for tumor model P335 Leukemia (intraperitoneal) in B6D2F1 (BDF1) mice
Details: endpoint: mean survival time, schedule: Q01DX Z (ip), higher = longer survival
Description: The antitumor activity of compounds was measured in mice bearing transplantable tumors. Survival or tumor size were measured and the results are expressed as the measurement made in the treated group (T) divided by the measurement made in the vehicle treated control group (C). The tumor model used in this assay is P335 Leukemia (intraperitoneal) in B6D2F1 (BDF1) mice

[1] = dose: 12.5 mg/kg/injection, vehicle: carboxymethylcellulose (CMC)
[2] = dose: 50.0 mg/kg/injection, vehicle: carboxymethylcellulose (CMC)
[3] = dose: 0.25 mg/kg/injection, vehicle: carboxymethylcellulose (CMC)
[4] = dose: 1.6 mg/kg/injection, vehicle: carboxymethylcellulose (CMC)
[5] = dose: 3.1 mg/kg/injection, vehicle: carboxymethylcellulose (CMC)
[6] = dose: 0.8 mg/kg/injection, vehicle: carboxymethylcellulose (CMC)
[7] = dose: 16.0 mg/kg/injection, vehicle: carboxymethylcellulose (CMC)

Q: How did the T/C (dose: 0.31 mg/kg/injection, vehicle: other) turn out when `CN(Cc1cnc2nc(N)nc(N)c2n1)c1ccc(C(=O)N[C@@H](CCC(=O)O)C(=O)O)cc1` was run?
A: Its T/C is 110 % of control.

Q: What about the T/C (dose: 3.0 mg/kg/injection, vehicle: other) of the same compound?
A: The T/C was 88 % of control.

Q: How did the T/C (dose: 63.0 micrograms/kg/injection, vehicle: saline) turn out when `COc1cc2c(c(OC)c1OC)-c1ccc(OC)c(=O)cc1[C@@H](NC(C)=O)CC2` was run?
A: The T/C was 104 % of control.

Q: What about the T/C (dose: 125.0 micrograms/kg/injection, vehicle: saline) of the same compound?
A: Its T/C is 101 % of control.

Q: And the T/C (dose: 250.0 micrograms/kg/injection, vehicle: saline)?
A: The T/C was 104 % of control.

Q: With `CSc1ncnc2nc[nH]c12` as the compound, how does the T/C [1] read?
A: The T/C was 96 % of control.

Q: And the T/C [2]?
A: Its T/C is 90 % of control.

Q: What about the T/C (dose: 50.0 mg/kg/injection, vehicle: methylcellulose (MC)) of the same compound?
A: The T/C was 87 % of control.

Q: How did the T/C (dose: 0.78 mg/kg/injection, vehicle: saline) turn out when `O=c1[nH]cc(F)c(=O)[nH]1` was run?
A: The T/C was 103 % of control.

Q: And the T/C (dose: 2.34 mg/kg/injection, vehicle: saline)?
A: Its T/C is 123 % of control.

Q: What about the T/C (dose: 4.68 mg/kg/injection, vehicle: saline) of the same compound?
A: The T/C was 118 % of control.

Q: What about the T/C (dose: 9.35 mg/kg/injection, vehicle: saline) of the same compound?
A: Its T/C is 113 % of control.

Q: And the T/C (dose: 12.5 mg/kg/injection, vehicle: saline)?
A: The T/C was 100 % of control.

Q: What about the T/C (dose: 18.7 mg/kg/injection, vehicle: saline) of the same compound?
A: Its T/C is 108 % of control.

Q: And the T/C (dose: 100.0 mg/kg/injection, vehicle: saline)?
A: Its T/C is 93 % of control.

Q: Which T/C (dose: 3.75 mg/kg/injection, vehicle: carboxymethylcellulose (CMC)) does the source give for `C[C@H]1C(=O)O[C@@H]2CCN3CC=C(COC(=O)[C@](C)(O)[C@@]1(C)O)[C@H]23` here?
A: The T/C was 87 % of control.

Q: And the T/C (dose: 7.5 mg/kg/injection, vehicle: carboxymethylcellulose (CMC))?
A: Its T/C is 94 % of control.

Q: And the T/C (dose: 15.0 mg/kg/injection, vehicle: carboxymethylcellulose (CMC))?
A: Its T/C is 91 % of control and 93 % of control.

Q: What about the T/C (dose: 30.0 mg/kg/injection, vehicle: carboxymethylcellulose (CMC)) of the same compound?
A: The T/C was 96 % of control.

Q: How did the T/C (dose: 15.6 mg/kg/injection, vehicle: saline) turn out when `CN(C)CC(=O)c1ccc(O)c(O)c1` was run?
A: Its T/C is 103 % of control.

Q: What about the T/C (dose: 31.25 mg/kg/injection, vehicle: saline) of the same compound?
A: Its T/C is 109 % of control.

Q: What about the T/C (dose: 62.5 mg/kg/injection, vehicle: saline) of the same compound?
A: Its T/C is 113 % of control.

Q: And the T/C (dose: 125.0 mg/kg/injection, vehicle: saline)?
A: The T/C was 109 % of control and 119 % of control.

Q: And the T/C (dose: 500.0 mg/kg/injection, vehicle: saline)?
A: The T/C was 89 % of control.

Q: For `N#Cc1cn(C2OC(CO)C(O)C2O)c2ncnc(N)c12` (stereo unspecified), which T/C [3] is on record?
A: The T/C was 106 % of control.

Q: And the T/C (dose: 0.5 mg/kg/injection, vehicle: carboxymethylcellulose (CMC))?
A: Its T/C is 98 % of control.

Q: `O=C1C(NC(=O)C2CCCCC2)=C(N2CC2)C(=O)C(NC(=O)C2CCCCC2)=C1N1CC1` was tested. Which T/C (dose: 150.0 mg/kg/injection, vehicle: carboxymethylcellulose (CMC)) did it give?
A: Its T/C is 103 % of control.

Q: What about the T/C (dose: 300.0 mg/kg/injection, vehicle: carboxymethylcellulose (CMC)) of the same compound?
A: The T/C was 101 % of control.

Q: What about the T/C (dose: 600.0 mg/kg/injection, vehicle: carboxymethylcellulose (CMC)) of the same compound?
A: The T/C was 106 % of control.

Q: What does the source list for `CN(C)c1ccc(Nc2c3ccccc3nc3ccccc23)cc1`?
A: T/C [4]: 112 % of control; T/C [5]: 93 % of control; T/C (dose: 6.2 mg/kg/injection, vehicle: carboxymethylcellulose (CMC)): 96 % of control; T/C [1]: 117 % of control

Q: Which T/C [1] does the source give for `C[N+](C)(C)c1ncnc2nc[nH]c12` here?
A: Its T/C is 107 % of control.

Q: And the T/C (dose: 25.0 mg/kg/injection, vehicle: carboxymethylcellulose (CMC))?
A: The T/C was 94 % of control.

Q: What about the T/C [2] of the same compound?
A: Its T/C is 110 % of control.

Q: What about the T/C (dose: 100.0 mg/kg/injection, vehicle: carboxymethylcellulose (CMC)) of the same compound?
A: Its T/C is 87 % of control and 107 % of control.

Q: Which T/C (dose: 0.4 mg/kg/injection, vehicle: carboxymethylcellulose (CMC)) does the source give for `CCCCn1cnc2c(=S)nc[nH]c21` here?
A: Its T/C is 89 % of control.

Q: And the T/C [6]?
A: The T/C was 87 % of control.

Q: What about the T/C [4] of the same compound?
A: The T/C was 87 % of control.

Q: Which T/C (dose: 4.0 mg/kg/injection, vehicle: saline) does the source give for `O=C(Nc1ccc(NC2=NCCN2)cc1)c1ccc(C(=O)Nc2ccc(NC3=NCCN3)cc2)cc1` here?
A: The T/C was 175 % of control.

Q: What about the T/C (dose: 8.0 mg/kg/injection, vehicle: saline) of the same compound?
A: Its T/C is 208 % of control.

Q: What about the T/C (dose: 16.0 mg/kg/injection, vehicle: saline) of the same compound?
A: Its T/C is 170 % of control.

Q: What about the T/C (dose: 32.0 mg/kg/injection, vehicle: saline) of the same compound?
A: The T/C was 91 % of control.

Q: For `NC(=O)N(CCCl)N=O`, which T/C (dose: 0.12 mg/kg/injection, vehicle: carboxymethylcellulose (CMC)) is on record?
A: Its T/C is 94 % of control.

Q: And the T/C [3]?
A: The T/C was 114 % of control.

Q: What about the T/C (dose: 1.0 mg/kg/injection, vehicle: carboxymethylcellulose (CMC)) of the same compound?
A: Its T/C is 110 % of control.

Q: How did the T/C (dose: 4.0 mg/kg/injection, vehicle: carboxymethylcellulose (CMC)) turn out when `c1ccc(CNc2ncnc3[nH]ncc23)cc1` was run?
A: Its T/C is 89 % of control.

Q: And the T/C (dose: 8.0 mg/kg/injection, vehicle: carboxymethylcellulose (CMC))?
A: The T/C was 90 % of control.

Q: What about the T/C [7] of the same compound?
A: Its T/C is 95 % of control.

Q: What about the T/C (dose: 31.25 mg/kg/injection, vehicle: carboxymethylcellulose (CMC)) of the same compound?
A: The T/C was 101 % of control.

Q: With `C[C@]12CC[C@H](OC3OC(CO)C(O)C(O)C3O)C[C@H]1CC[C@@H]1[C@@H]2CC[C@]2(C)[C@@H](C3=CCOC3=O)CC[C@]12O` (stereo partly specified) as the compound, how does the T/C (dose: 0.04 mg/kg/injection, vehicle: saline) read?
A: Its T/C is 97 % of control.

Q: What about the T/C (dose: 0.08 mg/kg/injection, vehicle: saline) of the same compound?
A: The T/C was 96 % of control.

Q: And the T/C (dose: 0.16 mg/kg/injection, vehicle: saline)?
A: Its T/C is 92 % of control.

Q: What about the T/C (dose: 0.31 mg/kg/injection, vehicle: saline) of the same compound?
A: Its T/C is 86 % of control.

Q: Which T/C [4] does the source give for `CN(C)c1ccc(/C=C/c2ccnc3ccccc23)cc1` here?
A: Its T/C is 94 % of control.

Q: And the T/C [5]?
A: The T/C was 89 % of control.

Q: And the T/C (dose: 6.2 mg/kg/injection, vehicle: water)?
A: The T/C was 100 % of control.

Q: And the T/C (dose: 6.25 mg/kg/injection, vehicle: carboxymethylcellulose (CMC))?
A: The T/C was 90 % of control and 105 % of control.

Q: And the T/C (dose: 12.5 mg/kg/injection, vehicle: water)?
A: Its T/C is 95 % of control.

Q: And the T/C (dose: 25.0 mg/kg/injection, vehicle: water)?
A: The T/C was 92 % of control.

Q: And the T/C [2]?
A: Its T/C is 118 % of control.

Q: With `O=CCC(O)C(O)C(O)CO` (stereo unspecified) as the compound, how does the T/C [6] read?
A: The T/C was 104 % of control.

Q: And the T/C [7]?
A: The T/C was 100 % of control.

Q: And the T/C (dose: 31.0 mg/kg/injection, vehicle: carboxymethylcellulose (CMC))?
A: The T/C was 93 % of control.

Q: And the T/C (dose: 62.5 mg/kg/injection, vehicle: carboxymethylcellulose (CMC))?
A: Its T/C is 114 % of control.

Q: What about the T/C (dose: 125.0 mg/kg/injection, vehicle: carboxymethylcellulose (CMC)) of the same compound?
A: The T/C was 104 % of control.

Q: What does the source list for `O=c1[nH]c(=O)n(C2CC(O)C(CO)O2)cc1Br` (stereo unspecified)?
A: T/C (dose: 250.0 mg/kg/injection, vehicle: carboxymethylcellulose (CMC)): 112 % of control; T/C (dose: 500.0 mg/kg/injection, vehicle: carboxymethylcellulose (CMC)): 115 % of control; T/C (dose: 1000.0 mg/kg/injection, vehicle: carboxymethylcellulose (CMC)): 94 % of control and 121 % of control

Q: For `CCCNc1ncnc2[nH]ncc12`, which T/C (dose: 0.62 mg/kg/injection, vehicle: water) is on record?
A: The T/C was 95 % of control.

Q: What about the T/C (dose: 5.0 mg/kg/injection, vehicle: water) of the same compound?
A: Its T/C is 94 % of control.

Q: Which T/C (dose: 10.0 mg/kg/injection, vehicle: carboxymethylcellulose (CMC)) does the source give for `CC1CCOS(=O)O1` (stereo unspecified) here?
A: Its T/C is 91 % of control.

Q: What about the T/C (dose: 20.0 mg/kg/injection, vehicle: carboxymethylcellulose (CMC)) of the same compound?
A: Its T/C is 113 % of control.

Q: And the T/C (dose: 40.0 mg/kg/injection, vehicle: carboxymethylcellulose (CMC))?
A: The T/C was 117 % of control.

Q: What about the T/C (dose: 80.0 mg/kg/injection, vehicle: carboxymethylcellulose (CMC)) of the same compound?
A: The T/C was 107 % of control.

Q: Which T/C (dose: 1.18 mg/kg/injection, vehicle: saline) does the source give for `N=[N+]=CC(=O)OCC(N)C(=O)O` (stereo unspecified) here?
A: The T/C was 101 % of control.

Q: What about the T/C (dose: 2.35 mg/kg/injection, vehicle: saline) of the same compound?
A: The T/C was 122 % of control.

Q: And the T/C (dose: 4.69 mg/kg/injection, vehicle: saline)?
A: The T/C was 122 % of control.

Q: And the T/C (dose: 25.0 mg/kg/injection, vehicle: saline)?
A: Its T/C is 106 % of control.

Q: What about the T/C (dose: 50.0 mg/kg/injection, vehicle: saline) of the same compound?
A: The T/C was 94 % of control.
